{"source": "patent US9012431B2", "about": "“Boron-containing small molecules as anti-inflammatory agents” (Anacor Pharmaceuticals, Inc., priority 2008, dated 2015)", "key": {"BALB/c male mice": {"system": "BALB/c male mice", "test": "Oxazolone Induced Mouse Ear Edema Model", "type": "in vivo", "conditions": "topical, 24 h", "outline": "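BALB/c males (n=5) are sensitized on the abdomen with 1.5% oxazolone and challenged on the right ear 7 days later with 1% oxazolone. Compound in acetone:ethanol 1:1 is applied topically 30 min before and 15 min after challenge.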"}, "[1]": {"system": "TNF-α secretion from peripheral blood mononuclear cells (PBMCs)", "test": "TNF-α secretion from PBMCs stimulated by LPS", "type": "cell-based, human", "conditions": "Homo sapiens, PBMC; PBMCs stimulated by LPS; read-out: TNF-α secretion IC50", "excerpt": "(§1) Compounds were screened by a biochemical assay against PDE4 enzyme and cell-based cytokine release assays using PBMCs stimulated by LPS or phytohemagglutinin (PHA)."}, "[2]": {"system": "IL-2 secretion from PBMCs", "test": "IL-2 secretion from PBMCs stimulated with PHA", "type": "cell-based, human", "conditions": "Homo sapiens, PBMC; PBMCs stimulated with PHA; read-out: IL-2 secretion IC50", "excerpt": "as §1"}, "[3]": {"system": "T1, phosphodiesterase 4 (PDE4) enzyme derived from human U937 cells", "T1 construct": "PDE4 IC50; other: biochemical assay, PDE4 enzyme derived from human U937 cells; other: PDE4 in human U937 cells", "test": "PDE4 enzyme activity (enzyme derived from human U937 cells)", "type": "biochemical", "conditions": "biochemical assay, PDE4 enzyme derived from human U937 cells; read-out: PDE4 IC50", "excerpt": "The structure-activity relationships of novel boron-containing anti-inflammatory agents was investigated.\nas §1"}, "[4]": {"system": "CD-1 (Crl.) derived male mice", "test": "Phorbol Ester Induced Mouse Ear Edema Model", "type": "in vivo", "conditions": "topical, 6 h, vehicle not given, ear swelling 6 hours after PMA", "outline": "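Test compounds in acetone:ethanol 1:1 were applied topically to both ears 30 min before and 15 min after PMA challenge; dexamethasone positive control followed the same schedule. Ear thickness was measured by micrometer 6 h after PMA, and percent inhibition was calculated from ear-thickness increase versus vehicle controls.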"}, "hERG-channel": {"molecular_target": "hERG-channel (Homo sapiens, UniProt Q12809)", "sequence (Q12809 whole entry)": "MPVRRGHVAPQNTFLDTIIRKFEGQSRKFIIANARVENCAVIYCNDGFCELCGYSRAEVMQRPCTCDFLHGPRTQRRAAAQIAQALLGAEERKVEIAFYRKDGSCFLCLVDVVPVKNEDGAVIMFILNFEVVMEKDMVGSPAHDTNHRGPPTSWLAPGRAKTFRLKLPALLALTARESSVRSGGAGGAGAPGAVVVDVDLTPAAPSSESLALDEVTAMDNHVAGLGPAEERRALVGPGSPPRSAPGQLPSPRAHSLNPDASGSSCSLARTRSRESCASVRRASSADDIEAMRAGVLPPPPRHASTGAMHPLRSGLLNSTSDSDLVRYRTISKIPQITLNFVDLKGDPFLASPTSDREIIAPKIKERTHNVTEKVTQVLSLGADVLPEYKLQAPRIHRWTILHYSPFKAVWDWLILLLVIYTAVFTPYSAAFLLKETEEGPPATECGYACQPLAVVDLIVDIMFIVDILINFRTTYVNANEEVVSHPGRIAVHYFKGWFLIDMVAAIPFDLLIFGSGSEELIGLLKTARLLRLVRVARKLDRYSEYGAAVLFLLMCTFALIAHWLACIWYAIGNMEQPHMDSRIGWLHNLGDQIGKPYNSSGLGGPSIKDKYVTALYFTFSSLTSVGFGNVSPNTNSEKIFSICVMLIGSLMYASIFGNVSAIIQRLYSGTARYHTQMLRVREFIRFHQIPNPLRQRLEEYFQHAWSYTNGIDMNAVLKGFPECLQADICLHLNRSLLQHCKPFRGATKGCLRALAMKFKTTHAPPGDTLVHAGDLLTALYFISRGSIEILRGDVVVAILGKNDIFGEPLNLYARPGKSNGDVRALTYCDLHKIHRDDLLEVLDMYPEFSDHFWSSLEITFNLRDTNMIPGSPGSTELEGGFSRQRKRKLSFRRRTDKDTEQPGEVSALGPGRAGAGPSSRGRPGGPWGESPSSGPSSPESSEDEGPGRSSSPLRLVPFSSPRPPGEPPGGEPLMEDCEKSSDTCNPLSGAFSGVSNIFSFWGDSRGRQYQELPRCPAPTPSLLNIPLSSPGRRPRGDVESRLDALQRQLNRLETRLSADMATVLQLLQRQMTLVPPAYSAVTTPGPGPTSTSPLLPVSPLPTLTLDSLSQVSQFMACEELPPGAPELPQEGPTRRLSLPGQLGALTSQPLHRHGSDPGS", "test": "hERG-channel block", "type": "biochemical", "conditions": "in vitro screening"}, "PMA induced ear edema": {"system": "PMA induced ear edema", "test": "PMA induced ear edema (acute skin irritation model)", "type": "in vivo"}, "in vivo": {"test": "in vivo", "conditions": "shrew"}, "[5]": {"system": "oxazolone induced ear swelling", "test": "Oxazolone induced ear swelling (allergic contact dermatitis model)", "type": "in vivo", "conditions": "topical"}, "[6]": {"test": "Pharmacokinetic analysis in the rat", "type": "in vivo"}, "[7]": {"system": "IFN-γ secretion from PBMCs", "test": "IFN-γ secretion from PBMCs stimulated with PHA", "type": "cell-based, human", "conditions": "Homo sapiens, PBMC; PBMCs stimulated with PHA; read-out: IFN-γ secretion IC50", "excerpt": "as §1"}, "[8]": {"test": "Dermal application on the Göttingen minipig (plasma level, dermal irritation)", "type": "in vivo", "conditions": "Göttingen, minipig, plasma, topical, 5 % ointment or cream over 15% body surface area; dermal 5% C27 ointment or cream over 15% body surface area; LLOQ=0.01 μg/ml; read-out: plasma levels of the compound"}, "Göttingen minipig": {"system": "Göttingen minipig", "test": "Dermal application on the Göttingen minipig (plasma level, dermal irritation)", "type": "in vivo", "conditions": "5% C27 ointment or cream, after 24 hours of exposure"}, "p450 enzyme": {"system": "p450 enzyme", "test": "p450 enzyme inhibition screen", "type": "in vitro ADME", "conditions": "in vitro screening"}, "L929": {"system": "L929", "test": "Cytotoxicity against L929 cell line", "type": "cell-based"}, "HepG2": {"system": "HepG2", "test": "Cytotoxicity against HepG2 cell line", "type": "cell-based"}}}
{"smiles": "N#Cc1ccc(Oc2ccc3c(c2)COB3O)cc1C#N", "note": "[C27, 5-(3,4-Dicyanophenoxy)-1,3-dihydro-1-hydroxy-2,1-benzoxaborole]", "values": [{"measurement": "inhibition in vivo at 3 mg", "setting": "BALB/c male mice", "value": "40 to 60", "unit": "%"}, {"measurement": "IC50", "setting": "[1]", "value": 160, "unit": "nM"}, {"measurement": "IC50", "setting": "[2]", "value": 180, "unit": "nM"}, {"measurement": "IC50", "setting": "[3]", "value": 60, "unit": "nM"}, {"measurement": "inhibition in vivo at 1 mg", "setting": "[4]; 1 mg/ear × 2 topical", "value": "60 to 90", "unit": "%"}, {"measurement": "inhibition in vivo at 3 mg", "setting": "[4]; 3 mg/ear × 2 topical", "value": "60 to 90", "unit": "%"}, {"measurement": "hERG inhibition", "setting": "hERG-channel", "value": "no significant"}, {"measurement": "inhibition of PMA induced ear edema", "setting": "PMA induced ear edema; acetone/ethanol vehicle, 5% C27, 15% dexamethasone, p<0.01", "value": 82, "unit": "%"}, {"measurement": "lowest active concentration in PMA ear edema model", "setting": "PMA induced ear edema; ointment vehicle", "value": 0.01, "unit": "%"}, {"measurement": "Cmax", "setting": "in vivo", "value": 12400, "unit": "ng/mL"}, {"measurement": "inhibition of oxazolone induced ear swelling", "setting": "[5]", "value": "significantly inhibits"}, {"measurement": "mean plasma residence time", "setting": "[6]; intravenous dosing at 20 mg/kg", "value": 0.64, "unit": "h"}, {"measurement": "bioavailability", "setting": "[6]; plasma, oral dosing at 100 mg/kg", "value": 7, "unit": "%"}, {"measurement": "IC50", "setting": "[7]", "value": 220, "unit": "nM"}, {"measurement": "concentration at 24 h", "setting": "[8]", "value": "< 10", "unit": "ng/mL"}, {"measurement": "dermal irritation", "setting": "Göttingen minipig", "value": "no dermal irritation"}, {"measurement": "p450 enzyme inhibition", "setting": "p450 enzyme", "value": "no significant"}, {"measurement": "cytotoxicity", "setting": "L929", "value": "> 100", "unit": "micro M"}, {"measurement": "cytotoxicity", "setting": "HepG2", "value": "> 100", "unit": "micro M"}]}
